Source: patent US20230365526A1, “PYRIDAZINE DERIVATIVES FOR MODULATING NUCLEIC ACID SPLICING” (REMIX THERAPEUTICS INC., priority 2020, published 2023)
Where two headings read alike, the source gives them in different places. Each block holds one molecule with its values, some of them ahead of it.

What was measured:
Assay type in all cases: cell-based
Target C = test: Gene panel canonical junction RT-qPCR assay: Target C; conditions: read-out: Target C (IC50, decrease in CJ mRNA levels)
Procedure: (§1) Compounds described herein were used to modulate RNA transcript abundance in cells. The expression of a target mRNA was measured by detecting the formation of an exon-exon junction in the canonical transcript (CJ). A compound mediated exon-inclusion event was detected by observing an increase in formation of a new junction with an alternative exon (AJ). Real-time qPCR assays were used to detect these splicing switches and interrogate the potency of various compounds towards different target genes. A high-throughput real time quantitative PCR (RT-qPCR) assay was developed to measure these two isoforms of the mRNA (CJ and AJ) for an exemplary gene, HTT, together with a control housekeeping gene, GAPDH or GUSB or PPIA, used for normalization. Briefly, the A673 or K562 cell line was treated with various compounds described herein (e.g., compounds of Formula (I)). After treatment, the levels of the HTT mRNA targets were determined from each sample of cell lysate by cDNA synthesis followed by qPCR.
(§2) The A673 cell line was cultured in DMEM with 10% FBS. Cells were diluted with full growth media and plated in a 96-well plate (15,000 cells in 100 ul media per well). The plate was incubated at 37° C. with 5% CO2 for 24 hours to allow cells to adhere. An 11-point 3-fold serial dilution of the compounds was made in DMSO then diluted in media in an intermediate plate. Compounds were transferred from the intermediate plate to the cell plate with the top dose at a final concentration of 10 uM in the well. Final DMSO concentration was kept at or below 0.25%. The cell plate was returned to the incubator at 37° C. with 5% CO2 for an additional 24 hours.
(§3) The K562 cell line was cultured in IMDM with 10% FBS. For K562, cells were diluted with full growth media and plated in either a 96-well plate (50,000 cells in 50 uL media per well) or a 384-well plate (8,000-40,000 cells in 45 uL media per well). An 11-point 3-fold serial dilution of the compounds were made in DMSO then diluted in media in an intermediate plate. Compound was transferred from the intermediate plate to the cell plate with the top dose at a final concentration of 10 uM in the well. Final DMSO concentration was kept at or below 0.25%. Final volume was 100 uL for 96-well plate and 50 uL for 384-well plate. The cell plate was then placed in an incubator at 37° C. with 5% CO2 for 24 hours.
(§4) The cells were then gently washed with 50 uL-100 uL cold PBS before proceeding to addition of lysis buffer. 30 uL-50 uL of room temperature lysis buffer with DNAse I (and optionally RNAsin) was added to each well. Cells were shaken/mixed thoroughly at room temperature for 5-10 minutes for lysis to take place and then 3 uL-5 uL of room temperature stop solution was added and wells were shaken/mixed again. After 2-5 minutes, the cell lysate plate was transferred to ice for RT-qPCR reaction setup. The lysates could also be frozen at −80° C. for later use.
(§5) In some cases, a direct lysis buffer was used. An appropriate volume of 3×lysis buffer (10 mM Tris, 150 mM NaCl, 1.5%-2.5% Igepal and 0.1-1 U/uL RNAsin, pH 7.4) was directly added to either K562 or A673 cells in media and mixed by pipetting 3 times. The plates were then incubated at room temperature with shaking/rocking for 20-50 minutes to allow for lysis to take place. After this time, the cell lysate plate was transferred to ice to set up for the RT-qPCR reactions. The lysates could also be frozen at −80° C. for later use.
(§6) To set up 10 uL RT-qPCR reactions, cell lysates were transferred to 384-well qPCR plates containing the master mix according to the table below. The plates were sealed, gently vortexed, and spun down before the run. The volumes were adjusted accordingly in some instances where the reaction was carried in 20 uL. The table below summarizes the components of the RT-qPCR reactions:
(§7) The RT-qPCR reaction was performed using a QuantStudio (ThermoFisher) under the following fast cycling conditions. […]

SMN2 = test: Gene panel canonical junction RT-qPCR assay: SMN2; conditions: read-out: SMN2 (IC50, decrease in CJ mRNA levels)
Procedure: as §1, §2, §3, §4, §5, §6, §7

HTT mRNA = test: RT-qPCR splicing assay monitoring HTT canonical (CJ) and alternative (AJ) junction mRNA in A673 or K562 cells; conditions: 24 hours compound treatment, top dose 10 uM
Procedure: as §1
• Cells-to-CT 1-step kit: ThermoFisher A25602, Cells-to-CT lysis reagent: ThermoFisher 4391851C, TaqMan™ Fast Virus 1-Step Master Mix: ThermoFisher 4444436 • GAPDH: VIC-PL, ThermoFisher 4326317E (Assay: Hs99999905_m1)—used for K562/suspension cell lines • GUSB: VIC-PL, ThermoFisher 4326320E (Assay: Hs99999908_m1)—used for K562/suspension cell lines • PPIA: VIC-PL, ThermoFisher 4326316E (Assay: Hs99999904_m1)—used for A673/adherent cell lines
as §2, §3, §4
as §5, with “use. […]” for “use.”

HTT = test: Gene panel canonical junction RT-qPCR assay: HTT; conditions: read-out: HTT (IC50, decrease in CJ mRNA levels)
Procedure: as §1, §2, §3, §4, §5, §6, §7

[1] = decrease in CJ mRNA, read-out: HTT CJ AC50
[2] = increase in AJ mRNA, read-out: HTT AJ AC50

Compound: CN(c1ccc(-c2ccc(-n3cccn3)c(=O)[nH]2)nn1)[C@@H]1C[C@H]2CC[C@@H](C1)N2 [Compound 130, 6-[6-[(1R,3S,5S)-8-azabicyclo[3.2.1]octan-3-yl(methyl)amino]pyridazin-3-yl]-3-(pyrazol-1-yl)-1H-pyridin-2-one]
IC50 (Target C): < 0.1 µM | IC50 (SMN2): 1 to 10 µM | AC50 (HTT mRNA; [1]): 0.1 to 1 µM | AC50 (HTT mRNA; [2]): 1 to 10 µM | IC50 (HTT): 0.1 to 1 µM

Compound: COc1nc(-c2ccc(N(C)[C@@H]3C[C@H]4CC[C@@H](C3)N4)nn2)ccc1-c1cn[nH]c1 [Compound 133, (1R,3S,5S)—N-[6-[6-methoxy-5-(1H-pyrazol-4-yl)pyridin-2-yl]pyridazin-3-yl]-N-methyl-8-azabicyclo[3.2.1]octan-3-amine]
IC50 (Target C): < 0.1 µM | IC50 (SMN2): < 0.1 µM | AC50 (HTT mRNA; [1]): < 0.1 µM | AC50 (HTT mRNA; [2]): 0.1 to 1 µM | IC50 (HTT): < 0.1 µM

Compound: COc1nc(-c2ccc(N(C)[C@@H]3C[C@H]4CC[C@@H](C3)N4)nn2)ccc1-n1cccn1 [Compound 134, (1R,3S,5S)—N-[6-[6-methoxy-5-(pyrazol-1-yl)pyridin-2-yl]pyridazin-3-yl]-N-methyl-8-azabicyclo[3.2.1]octan-3-amine]
IC50 (Target C): > 10 µM | IC50 (SMN2): 0.1 to 1 µM | AC50 (HTT mRNA; [1]): 0.1 to 1 µM | AC50 (HTT mRNA; [2]): 0.1 to 1 µM | IC50 (HTT): 0.1 to 1 µM

Compound: COc1nc(-c2ccc(N(C)[C@@H]3CCN[C@H](C)C3)nn2)ccc1-c1cn[nH]c1 [Compound 136, 6-[6-methoxy-5-(1H-pyrazol-4-yl)pyridin-2-yl]-N-methyl-N-[(2R,4R)-2-methylpiperidin-4-yl]pyridazin-3-amine]
IC50 (SMN2): 0.1 to 1 µM | AC50 (HTT mRNA; [1]): 1 to 10 µM | AC50 (HTT mRNA; [2]): 1 to 10 µM | IC50 (HTT): 1 to 10 µM

Compound: Cc1nc(-c2ccc(N(C)[C@@H]3C[C@H]4CC[C@@H](C3)N4)nn2)ccc1-c1cn[nH]c1 [Compound 171]
IC50 (Target C): 1 to 10 µM | IC50 (SMN2): 0.1 to 1 µM | AC50 (HTT mRNA; [1]): 1 to 10 µM | AC50 (HTT mRNA; [2]): 1 to 10 µM | IC50 (HTT): 1 to 10 µM

Compound: COc1nc(-c2ccc(N(C)[C@@H]3C[C@H]4CC[C@@H](C3)N4)nn2)ncc1-c1cn[nH]c1 [Compound 207]
IC50 (Target C): 1 to 10 µM | IC50 (SMN2): 1 to 10 µM | AC50 (HTT mRNA; [1]): 1 to 10 µM | AC50 (HTT mRNA; [2]): 1 to 10 µM | IC50 (HTT): 1 to 10 µM

Compound: COc1cc(-c2ccc(N(C)[C@@H]3C[C@H]4CC[C@@H](C3)N4)nn2)ccc1-c1cn[nH]c1 [Compound 208]
IC50 (Target C): 0.1 to 1 µM | IC50 (SMN2): < 0.1 µM | AC50 (HTT mRNA; [1]): 0.1 to 1 µM | AC50 (HTT mRNA; [2]): 0.1 to 1 µM | IC50 (HTT): 0.1 to 1 µM

Compound: CN(c1ccc(-c2ccc(-c3cn[nH]c3)cn2)nn1)[C@@H]1C[C@H]2CC[C@@H](C1)N2 [Compound 217]
IC50 (Target C): 1 to 10 µM | IC50 (SMN2): > 10 µM | AC50 (HTT mRNA; [1]): 0.1 to 1 µM | AC50 (HTT mRNA; [2]): 0.1 to 1 µM | IC50 (HTT): 0.1 to 1 µM

Compound: COc1nc(-c2ccc(N(C)C3C[C@H]4CC[C@@H](C3)N4)nn2)ccc1-c1cnn(C)n1 (stereo partly drawn) [Compound 269, N-{6-[6-methoxy-5-(2-methyl-1,2,3-triazol-4-yl)pyridin-2-yl]pyridazin-3-yl}-N-methyl-8-azabicyclo[3.2.1]octan-3-amine]
IC50 (Target C): 0.1 to 1 µM | AC50 (HTT mRNA; [1]): 0.1 to 1 µM | AC50 (HTT mRNA; [2]): 0.1 to 1 µM | IC50 (HTT): < 0.1 µM

IC50 (Target C): 1 to 10 µM | IC50 (HTT): 1 to 10 µM
Compound: COc1nc(-c2ccc(NC3CCNCC3)nn2)ccc1-c1cnn(C)n1 [Compound 270, 6-[6-methoxy-5-(2-methyl-1,2,3-triazol-4-yl)pyridin-2-yl]-N-(piperidin-4-yl)pyridazin-3-amine]
AC50 (HTT mRNA; [1]): > 10 µM | AC50 (HTT mRNA; [2]): 1 to 10 µM

IC50 (Target C): 1 to 10 µM | IC50 (HTT): 1 to 10 µM
Compound: COc1nc(-c2ccc(OC3CC(C)(C)NC(C)(C)C3)nn2)ccc1-n1cccn1 [Compound 271, bis(3-[6-methoxy-5-(pyrazol-1-yl)pyridin-2-yl]-6-[(2,2,6,6-tetramethylpiperidin-4-yl)oxy]pyridazine)]
AC50 (HTT mRNA; [1]): 1 to 10 µM | AC50 (HTT mRNA; [2]): 1 to 10 µM

Compound: COc1nc(-c2ccc(N(C)C3CC(C)(C)NC(C)(C)C3)nn2)ccc1-n1cccn1 [Compound 272, 6-[6-methoxy-5-(pyrazol-1-yl)pyridin-2-yl]-N-methyl-N-(2,2,6,6-tetramethylpiperidin-4-yl) pyridazin-3-amine]
IC50 (Target C): 1 to 10 µM | AC50 (HTT mRNA; [1]): 0.1 to 1 µM | AC50 (HTT mRNA; [2]): 0.1 to 1 µM | IC50 (HTT): 1 to 10 µM

Compound: CC(C)Oc1nc(-c2ccc(N(C)[C@@H]3C[C@H]4CC[C@@H](C3)N4)nn2)ccc1-c1cn[nH]c1 [Compound 284, (1R,3R,5S)—N-{6-[6-isopropoxy-5-(1H-pyrazol-4-yl)pyridin-2-yl]pyridazin-3-yl}-N-methyl-8-azabicyclo[3.2.1]octan-3-amine]
IC50 (Target C): 0.1 to 1 µM | AC50 (HTT mRNA; [1]): < 0.1 µM | AC50 (HTT mRNA; [2]): 1 to 10 µM | IC50 (HTT): < 0.1 µM

Compound: CN(c1ccc(-c2ccc(-c3cn[nH]c3)c(OC3CC3)n2)nn1)[C@@H]1C[C@H]2CC[C@@H](C1)N2 [Compound 286, (1R,3R,5S)—N-{6-[6-cyclopropoxy-5-(1H-pyrazol-4-yl)pyridin-2-yl]pyridazin-3-yl}-N-methyl-8-azabicyclo[3.2.1]octan-3-amine]
IC50 (Target C): < 0.1 µM | AC50 (HTT mRNA; [1]): < 0.1 µM | AC50 (HTT mRNA; [2]): < 0.1 µM | IC50 (HTT): < 0.1 µM

Compound: COc1nc(-c2ccc(N(C)[C@@H]3C[C@H]4CC[C@@H](C3)N4)nn2)ccc1-c1cnn(C)c1 [Compound 287, (1R,3s,5S)-N-(6-(6-methoxy-5-(1-methyl-1H-pyrazol-4-yl)pyridin-2-yl)pyridazin-3-yl)-N-methyl-8-azabicyclo [3.2.1] octan-3-amine]
IC50 (Target C): < 0.1 µM | AC50 (HTT mRNA; [1]): < 0.1 µM | AC50 (HTT mRNA; [2]): 0.1 to 1 µM | IC50 (HTT): < 0.1 µM

IC50 (Target C): > 10 µM | IC50 (HTT): > 10 µM
Compound: COc1nc(-c2ccc(NC3CCNCC3)nn2)ccc1-n1cccn1 [Compound 288, 6-[6-methoxy-5-(pyrazol-1-yl)pyridin-2-yl]-N-(piperidin-4-yl) pyridazin-3-amine]
AC50 (HTT mRNA; [1]): > 10 µM | AC50 (HTT mRNA; [2]): > 10 µM

Compound: COc1nc(-c2ccc(O[C@@H]3C[C@H]4CC[C@@H](C3)N4)nn2)ccc1-c1cn(C)nn1 [Compound 290, 3-({6-[6-methoxy-5-(1-methyl-1,2,3-triazol-4-yl)pyridin-2-yl]pyridazin-3-yl}oxy)-8-azabicyclo[3.2.1]octane]
IC50 (Target C): 1 to 10 µM | AC50 (HTT mRNA; [1]): 0.1 to 1 µM | AC50 (HTT mRNA; [2]): > 10 µM | IC50 (HTT): 0.1 to 1 µM
